Measurements: patent US4320117A, “Polypeptide” (Imperial Chemical Industries Limited, priority 1976, dated 1982)
Square brackets hold non-standard residues; d marks the D form. Peptide text beside a SMILES is read from it.

Columns and labels:
[1] = tested on: mouse hot-plate test (thermal stimulus, 56° C.); assay: mouse hot-plate test; format: in vivo, mice; conditions: for mean increase in reaction time: female mice, hot plate at 56° C.
Description: As noted above, the compound of the formula I has analgesic activity in warm-blooded animals. […] This test is carried out as follows. Groups of three female mice each weighing 22 to 25g. are used to test each compound. Each mouse is placed on a heated thermostatically-controlled copper surface at 56° C., and the time taken to react to the thermal stimulus (for example by licking its hind paws) is recorded. Normal reaction times are in the range of 3 to 5 seconds.
Each of the three mice is then dosed intravenously with 100 mg./kg. of a solution of the test compound. At 5, 10 and 30 minutes after dosing, each mouse is again placed on the hot plate and its reaction time determined. […] In this circumstance the compound is regarded as having maximum activity at this dose.
A compound producing a mean increase in reaction time of at least three seconds is regarded as active. An active compound is then retested at lower doses.

cat = conditions: injected directly into the 3rd ventricle of the cat; cited from earlier work

CC[C@H](C)[C@H](NC(=O)[C@H](C)NC(=O)[C@H](CC(N)=O)NC(=O)[C@H](CCCCN)NC(=O)[C@H](Cc1ccccc1)NC(=O)[C@H](CC(C)C)NC(=O)[C@@H](NC(=O)[C@@H](NC(=O)[C@H](CC(C)C)NC(=O)[C@@H]1CCCN1C(=O)[C@@H](NC(=O)[C@H](CCC(N)=O)NC(=O)[C@H](CO)NC(=O)[C@H](CCCCN)NC(=O)[C@H](CCC(=O)O)NC(=O)[C@H](CO)NC(=O)[C@@H](NC(=O)[C@H](CC(C)C)NC(=O)[C@H](Cc1ccccc1)NC(=O)CNC(=O)[C@@H](C)NC(=O)[C@@H](N)Cc1ccc(O)cc1)[C@@H](C)O)[C@@H](C)O)C(C)C)[C@@H](C)O)C(=O)N[C@H](C(=O)N[C@@H](CCCCN)C(=O)N[C@@H](CC(N)=O)C(=O)N[C@@H](C)C(=O)N[C@@H](Cc1c[nH]cn1)C(=O)N[C@@H](CCCCN)C(=O)N[C@@H](CCCCN)C(=O)NCC(=O)N[C@@H](CCC(N)=O)C(=O)O)C(C)C [Example] (H-Y[dA]GFLTSEKSQTPLVTLFKNAIVKNAHKKGQ-OH)
mean increase in reaction time ([1]; intravenous dose of 100 mg./kg.): 15 s
mean increase in reaction time ([1]; intravenous, 25 mg./kg.): 6 s
duration of analgesic effect ([1]; mice, intravenous, 100 mg./kg.): at least 3 hours
signs of toxicity ([1]; mice, intravenous, 100 mg./kg.): no obvious signs of toxicity

β-endorphin: residues 61-91 of the naturally-occurring lipolytic polypeptide hormone lipotropin (C-fragment of lipotropin) (YGGFMTSEKSQTPLVTLFKNAIIKNAYKKGE; Beta-endorphin; UniProt P01189 237-267, looked up)
analgesic properties (cat): possesses analgesic properties
